Assay results published in PMC12373846, “Hemoglobin as a pseudoperoxidase and drug target for oxidative stress-related diseases” (Signal Transduction and Targeted Therapy, 2025).
Like-named read-outs stand apart in the source and are kept apart here.

How the values were obtained:
mouse hemoglobin (mHb) = molecular target: T1, mouse hemoglobin (mHb) (Mus musculus, UniProt P02088); assay: ROS-Glo H2O2 assay with mouse hemoglobin; format: biochemical; details: Fig. S1f; read-out: EC50, H2O2 decomposition with mouse hemoglobin (mHb)
T1 construct: Mouse hemoglobin (Hb) purified from erythrocytes; purchased CUSABIO CSB-NP004901m; host or cells: erythrocytes
Protocol: Mouse hemoglobin (Hb) purified from erythrocytes (Cat. CSB-NP004901m, CUSABIO) was used for the ROS-Glo H2O2 assay. KDS12025 was added in a dose-dependent manner to a reaction mixture containing mouse Hb and H2O2. The assay was performed according to the manufacturer’s protocol (Promega), and luminescence was measured using an iD5 plate reader. H2O2-decomposing activity was calculated as the percentage reduction in luminescence relative to controls. Assays with human Hb were conducted in parallel for comparison.

purified human Hb = molecular target: T2, purified human Hb (Homo sapiens, UniProt P68871); assay: ITC binding affinity assay; details: Hb+KDS12025, without H2O2
T2 construct: purchased MP Biomedical 55914
Protocol: All ITC experiments were conducted via a MicroCal AutoiTC200 (Malvern Panalytical) at the Korea Basic Science Institute (Ochang, Korea). Binding affinity was measured via the addition of 40 µl of 5 mM KDS12025 (ligand) and 200 µl of 200 μM purified human Hb (protein) (MP Biomedical, 55914) in sodium phosphate buffer (pH 7.2). For each titration experiment, 2 µl of KDS12025 was injected into purified human Hb for 4 s at intervals of 180 s at 25 °C. Overall, 19 injections were performed for each experiment, and the data were analyzed via MicroCal Origin 8.0 software.

mice = assay: Laser speckle contrast imaging of cerebral perfusion; format: in vivo, mouse
Protocol: To assess cerebral perfusion, mice were anesthetized with isoflurane (2-3% in 100% O2, maintained at 1.0%) and placed on a heating pad to maintain body temperature. Following scalp incision, the skull surface was exposed without thinning or craniotomy. LSCI was performed using a laser speckle imaging system (RWD Life Science), acquiring frames at 30 Hz. KDS12025 (0.1, 1, or 10 mg/kg/day) or saline was administered via retro-orbital injection immediately prior to imaging. Cerebral blood perfusion and vessel diameter (pipe diameter) were quantified using RWD’s proprietary LSCI analysis software. All imaging was conducted under identical illumination and acquisition parameters.

SOD1^G93A mice = assay: Survival and rotarod, SOD1^G93A ALS mice; format: in vivo, mouse; details: 1 and 10 mg/kg/day ad libitum
Protocol: SOD1^G93A mice (B6SJL-Tg(SOD1*G93A)1Gur/J) were purchased from Jackson Laboratory (strain number 002726) and used in the ALS mouse model. The mice were divided into four groups: Control, SOD1, and KDS12025 (1 and 10 mg/kg/day). Starting at 10 weeks of age, KDS12025 was administered via ad libitum drinking water at doses of 1 mg/kg/day and 10 mg/kg/day. The control and SOD1 groups received standard drinking water. Motor function was evaluated weekly via the rotarod performance test, and the ratio of running time was normalized to that of littermate controls to assess motor coordination and endurance over time. Survival of the mice was monitored for up to 24 weeks, and median survival times were calculated for each group.

CIA DBA1 mice = assay: CIA mouse model of rheumatoid arthritis; format: in vivo; set-up: matrix, toluidine blue (Fig. S20m) / surface regularity, toluidine blue (Fig. S20n) / CIA score at day 42 (Fig. S20c) / area under the curve (AUC) of symptom severity (Fig. S20e): scale not given here; cartilage thickness, toluidine blue (Fig. S20o): unit not given here
Protocol: CIA was induced in DBA1 mice by intradermal injection of type II collagen emulsified in Complete Freund's Adjuvant (CFA) on day 0, followed by a booster injection of type II collagen in Incomplete Freund's Adjuvant (IFA) on day 21. Starting from day 23, mice were administered KDS12025 in drinking ad libitum at doses of 0, 0.1, or 1 mg/kg/day until day 42. To assess joint inflammation and cartilage thickness in CIA mice, joint samples were collected and fixed in 10% formalin. The samples were then decalcified, embedded in paraffin, and sectioned. For histological evaluation, sections were stained with H&E to assess inflammation and with Toluidine Blue to evaluate cartilage thickness. The stained sections were examined under a light microscope, and images were captured for quantitative analysis of inflammatory cell infiltration and cartilage integrity.

[1] = In vivo pharmacokinetics (IV, PO); details: male, ICR, mouse, plasma, mice
Protocol: In vivo pharmacokinetic studies of KDS12025 were conducted by Medicilon (Shanghai, China). For both intravenous (IV) and oral (PO) administration, the compound was dissolved in a vehicle consisting of 10% Solutol and 90% distilled water. Male ICR mice (n = 4 per group) were fasted overnight and allowed access to food 4 h post-dosing, with water provided ad libitum. Following administration, blood samples (0.03 mL per time point) were collected via the submandibular vein. Samples were transferred to tubes containing sodium heparin and centrifuged at 6,800 x g for 6 min at 2–8 °C. Plasma was separated, transferred to Eppendorf tubes, and internal standard (IS: 10 ng/mL verapamil) was added. After vortexing for 1 min and centrifugation at 18,000 x g for 7 min, the supernatant was analyzed by liquid chromatography–tandem mass spectrometry (LC-MS/MS; TQ5500 Triple Quad, SCIEX). Pharmacokinetic parameters including area under the curve (AUC0–t and AUC0–∞), elimination half-life (t1/2), maximum plasma concentration (Cmax), and time to reach maximum concentration (Tmax) were calculated using noncompartmental analysis in Phoenix WinNonlin 7.0 (Pharsight, USA), an FDA-certified pharmacokinetic software.

T2 sequence (P68871 2-147 limits assumed): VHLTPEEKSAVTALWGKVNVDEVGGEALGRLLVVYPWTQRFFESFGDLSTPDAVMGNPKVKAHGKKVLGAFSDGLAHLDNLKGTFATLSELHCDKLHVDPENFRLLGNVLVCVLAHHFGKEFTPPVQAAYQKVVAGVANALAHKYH
T2 sequence (P69905 2-142 partner limits assumed): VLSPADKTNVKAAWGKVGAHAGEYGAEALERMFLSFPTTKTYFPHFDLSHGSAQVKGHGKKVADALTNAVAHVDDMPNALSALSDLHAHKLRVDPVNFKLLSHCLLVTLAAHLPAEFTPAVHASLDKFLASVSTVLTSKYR
T1 sequence (P02088 2-147 limits assumed): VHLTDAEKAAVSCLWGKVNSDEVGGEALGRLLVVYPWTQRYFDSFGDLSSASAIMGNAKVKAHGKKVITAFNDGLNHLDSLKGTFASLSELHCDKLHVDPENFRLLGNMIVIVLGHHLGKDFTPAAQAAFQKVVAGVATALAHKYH
T1 sequence (P01942 2-142 partner limits assumed): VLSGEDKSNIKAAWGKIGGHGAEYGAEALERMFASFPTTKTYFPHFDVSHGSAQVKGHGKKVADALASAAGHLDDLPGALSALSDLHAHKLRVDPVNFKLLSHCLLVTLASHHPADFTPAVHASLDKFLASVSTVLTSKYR

Compound: CNc1ccc(NCCc2ccccc2OC)cc1.Cl [KDS12025, N^1-(2-methoxyphenethyl)-N^4-methylbenzene-1,4-diamine hydrochloride salt]
- EC50 (mouse hemoglobin (mHb)): 24 nM
- ΔG (ITC) (purified human Hb): -7.53 kcal/mol
- ΔH (ITC) (purified human Hb): -580 kcal/mol
- overall cerebral perfusion (LSCI, Fig. S8f) (mice; 0.1 mpk retro-orbital): 1169±10.7
- vessel diameter (pipe diameter, Fig. S8g) (mice; 0.1 mpk retro-orbital): 193±3.8
- overall cerebral perfusion (LSCI, Fig. S8f) (mice; 1 mpk retro-orbital): 1205±10.4
- vessel diameter (pipe diameter, Fig. S8g) (mice; 1 mpk retro-orbital): 200±2.3
- overall cerebral perfusion (LSCI, Fig. S8f) (mice; 10 mpk retro-orbital): 1190±7.4
- vessel diameter (pipe diameter, Fig. S8g) (mice; 10 mpk retro-orbital): 203±3.9
- delay of motor impairment onset (SOD1^G93A mice; rotarod): more than 7 weeks
- median survival (SOD1^G93A mice; untreated 140): 168 days
- CIA score at day 42 (Fig. S20c) (CIA DBA1 mice; 0.1 MPK): 9.5±1.133
- area under the curve (AUC) of symptom severity (Fig. S20e) (CIA DBA1 mice; 0.1 MPK): 54.17±15.02
- body weight difference (Fig. S20p) (CIA DBA1 mice; 0.1 MPK): 93±0.5%
- bone erosion, H&E (Fig. S20k) (CIA DBA1 mice; 0.1 MPK): 0.852±0.3905
- cartilage destruction, H&E (Fig. S20i) (CIA DBA1 mice; 0.1 MPK): 1.5±0.2949
- cartilage thickness, toluidine blue (Fig. S20o) (CIA DBA1 mice; 0.1 MPK): 0.85±0.2018
- matrix, toluidine blue (Fig. S20m) (CIA DBA1 mice; 0.1 MPK): 1.504±0.3303
- pannus formation, H&E (Fig. S20j) (CIA DBA1 mice; 0.1 MPK): 0.9±0.3929
- paw volume (Fig. S20f) (CIA DBA1 mice; 0.1 MPK): 0.1383 ± 0.0074 mL
- surface regularity, toluidine blue (Fig. S20n) (CIA DBA1 mice; 0.1 MPK): 1.352±0.3083
- synovial hyperplasia, H&E (Fig. S20h) (CIA DBA1 mice; 0.1 MPK): 1.338±0.2985
- CIA score at day 42 (Fig. S20c) (CIA DBA1 mice; 1 MPK): 6.583±0.7002
- area under the curve (AUC) of symptom severity (Fig. S20e) (CIA DBA1 mice; 1 MPK): 25.0±9.129
- body weight difference (Fig. S20p) (CIA DBA1 mice; 1 MPK): 100.7±0.4%
- bone erosion, H&E (Fig. S20k) (CIA DBA1 mice; 1 MPK): 0.338±0.2928
- cartilage destruction, H&E (Fig. S20i) (CIA DBA1 mice; 1 MPK): 0.966±0.2183
- cartilage thickness, toluidine blue (Fig. S20o) (CIA DBA1 mice; 1 MPK): 0.652±0.1825
- matrix, toluidine blue (Fig. S20m) (CIA DBA1 mice; 1 MPK): 0.988±0.2547
- pannus formation, H&E (Fig. S20j) (CIA DBA1 mice; 1 MPK): 0.338±0.2928
- paw volume (Fig. S20f) (CIA DBA1 mice; 1 MPK): 0.1183 ± 0.0047 mL
- surface regularity, toluidine blue (Fig. S20n) (CIA DBA1 mice; 1 MPK): 0.95±0.2009
- synovial hyperplasia, H&E (Fig. S20h) (CIA DBA1 mice; 1 MPK): 0.7620±0.3263
- bioavailability ([1]; 5 mg/kg IV and 30 mg/kg PO, read-out: F (bioavailability)): 87.4%
- AUC ([1]; 5 mg/kg IV, read-out: AUCall, IV): 687 ± 118 ng·h/mL
- half-life ([1]; 5 mg/kg IV, read-out: t1/2, IV (converted)): 57.6 ± 5.4 min
- AUC ([1]; 30 mg/kg PO, read-out: AUCall, PO): 3600 ± 662 ng·h/mL
- Cmax ([1]; cell spans IV and PO heads, probably 30 mg/kg PO): 2310 ± 344 ng/mL
